For assay [1], the system named is SCID mouse vastus musculature. In words: Myoblast implantation in vivo: incorporation of β-GAL-marked myoblasts into host myofibers. As to conditions: myoblasts stimulated before implantation with 1 μg/ml bFGF, 50 μg/ml fibronectin or both; SCID mice, 3 weeks; 4 animals. As to the method: All animal studies were carried out following the institutional guideline for animal use. For in vivo studies, SCID mouse myoblasts transduced with a BAG retrovirus containing the beta-galactosidase (β-GAL) reporter gene and selected as previously described (Yao and Kurachi “Implanted myoblasts not only fuse with myofibers but also survive as muscle precursor cells” J. Cell Sci 105:957-963, 1993), were grown in growth medium on 15 cm plates. When cells reached 70% confluence they were harvested by trypsinization using standard methods, rinsed twice in phosphate buffered saline (PBS), and resuspended in DMEM containing either bFGF (1 μg/ml), fibronectin (50 μg/ml) or both, at a concentration of 2×10^7 cells/ml. […]
Muscle sections were stained for β-GAL activity using the standard histochemical staining procedure (Rando et al. “The fate of myoblasts following transplant into mature muscle” Exper. Cell Res. 220:383-389, 1995). […] The total number of β-GAL-positive fibers (stained blue) per section was counted for 5 different sections spanning the entire injection site for each animal and averaged. […]
The number of β-GAL positive myofibers were quantified after implantation of BAG-transduced SCID myoblasts treated with DMEM alone (control), 1 μg/ml bFGF, 50 μg/ml fibronectin, or 1 μg/ml bFGF+50 μg/ml fibronectin. […]

For assay [2], the system named is MMP-2. Briefly: Gelatin zymography of mouse myoblast culture medium, MMP-2. The class given is cell-based.
Protocol: Briefly, myoblasts were grown in 6 cm tissue culture plates to approximately 70% confluence, then rinsed three times with serumfree DMEM and incubated for 3 hours in DMEM containing 0.2% BSA to eliminate the effects of serum. Growth factors were added and cells were incubated for 24 hours. Culture medium was then collected, centrifuged to pellet detached cells, and concentrated ten-to twenty-fold using the Centricon-10 (Amicon, Beverly, Mass.) system. The protein concentration of the supernatants was determined using the Bio-Rad protein microassay system with BSA used as the standard. Samples were stored at −70° C. until use. For gelatin zymography, aliquots (10 μg as the total protein per sample) were electrophoresed at constant voltage on a 10% polyacrylamide gel containing 2 mg/ml gelatin. The gel was rinsed three times for 15 min in 2.5% Triton-X 100 to remove SDS and renature the proteins, then incubated in MMP activation buffer (0.05 M Tris-HCl, pH 7.5 with 5 mM CaCl2) for 24 hours at 37° C. with constant shaking. Gels were stained overnight in 0.5% Coomassie blue R-250, and destained for 1 hour in 40% methanol: 10% acetic acid. Proteinase activity was quantified by densitometric scanning of bands using a Bio-Rad Gel Doc 1000 video camera imaging system (Bio Rad, Hercules, Calif.). […] Values are arbitrary densitometric units, which are normalized to DMEM control for each experiment and shown as values ±SEM representing a minimum of 3 experiments per condition. […] Mouse myoblasts were treated for 24 hours with either DMEM alone, fibronectin (50 μg/ml), or individual fragments (37.5 μg/ml) of 45, 120, 63 (Retronectin), 75 kDa and their combinations, 45 kDa/120 kDa and 120 kDa/63 kDa.
Assay [3] deals with mouse myoblasts. Briefly: In vitro mouse myoblast invasion assay across Matrigel barrier. The note with it: 24 hours; for increase of mouse myoblast invasion across Matrigel barrier over the control: 25 ng/ml bFGF, 50 μg/ml fibronectin; for effect on bFGF-stimulated mouse myoblast invasion: 0.05 units/ml plasmin or 50 mM NAC. The class given is cell-based. How it is done:
Mouse myoblasts were previously isolated from hind limb muscles of 4-6 week old severe combined immunodeficient (SCID) mice and clonally purified from contaminating fibroblasts (Yao et al. “Primary myoblast-mediated gene: transfer: persistent expression of human factor IX in mice” Gene Therapy 1:99-107, 1994). Myoblasts (approximately 1×10^6 cells) were plated on 6 cm tissue culture plates coated with 0.5% gelatin (Sigma, St. Louis, Mo.) and grown in growth medium consisting of Dulbecco's Modified Eagle Medium (DMEM) (Gibco BRL, Gaithersburg Md.) supplemented with 20% fetal bovine serum (FBS; Gibco) and 0.5% chick embryo extract (CEE; Gibco). All animal studies were carried out following the institutional guidelines for ethical animal use. Human myoblasts were isolated using trypsin digestion from abdominal wall or chest wall muscle biopsies, and surgery. Written consent was obtained from all patients prior to biopsy isolation as approved by the University Hospital's Institutional Regulation Board on the use of human subjects. Cells were preplated on uncoated plates for 1 hour to separate muscle fibroblasts. […] All experiments were done with myoblasts of passage 7 or lower. Myoblast migration and invasion were examined using a commercially available in vitro cell migration and invasion assay kit (Biocoat, Becton Dickinson, Franklin Lakes, N.J.) as described by Albini et al. (A rapid in vitro assay for quantitating the invasive potential of tumor cells Cancer Res 47:3239-3245, 1987). Myoblasts were grown to approximately 70% confluence, rinsed three times in serum-free DMEM, followed by incubation for 3 hours in 0.2% bovine serum albumin (BSA) in DMEM to eliminate the effects of serum. Cells were then trypsinized and collected by centrifugation. Cells were resuspended in serum-free DMEM at a density of 1×10^5 cells/ml, and 0.5 ml aliquots of cell suspension were added to the top chamber. […] Fibronectin subfragments of 45 KDa (Sigma), 120 kDa (Gibco), 63 kDa (Retronectin, Takara) and 70 KDa (Sigma) were used alone or in combination. […] For migration studies, the upper chamber membrane was coated with 0.1% gelatin and cells were allowed to migrate for 8-12 hours, while for invasion studies, the upper membrane was coated with 5 μl of Matrigel® diluted to 5 mg/ml in sterile phosphate buffered saline (PBS) and cells were allowed to invade for 24 hours. The top side of the insert membrane was scrubbed free of cells using a cotton swab and the bottom side was stained using the Leukostat-I system (Fisher Diagnostics, Pittsburgh, Pa.). The number of cells per field was counted in 10 randomly selected fields and averaged for each condition. To evaluate the effects of inactivation or activation of MMPs, aliquots (0.05 units in 50 μl PBS) of purified human plasmin (Sigma) or 50 mM N-acetyl cysteine (NAC; Sigma) were added with the cells to the top chamber of the migration assay and growth factor was added to the bottom. […] Myoblasts (5×10^4 cells/well) were stimulated with various growth factors and fibronectin, and their ability to migrate or invade through a Matrigel® barrier (panel a, mouse myoblast migration at 12 hours; panel b, mouse myoblast invasion at 24 hours). […] Bars represent mean ±SEM from a minimum of 3 separate experiments.

Assay [4] has as its system MMP-9. Briefly: Gelatin zymography of mouse myoblast culture medium, MMP-9. The class given is cell-based.
Protocol: Briefly, myoblasts were grown in 6 cm tissue culture plates to approximately 70% confluence, then rinsed three times with serumfree DMEM and incubated for 3 hours in DMEM containing 0.2% BSA to eliminate the effects of serum. Growth factors were added and cells were incubated for 24 hours. Culture medium was then collected, centrifuged to pellet detached cells, and concentrated ten-to twenty-fold using the Centricon-10 (Amicon, Beverly, Mass.) system. The protein concentration of the supernatants was determined using the Bio-Rad protein microassay system with BSA used as the standard. Samples were stored at −70° C. until use. For gelatin zymography, aliquots (10 μg as the total protein per sample) were electrophoresed at constant voltage on a 10% polyacrylamide gel containing 2 mg/ml gelatin. The gel was rinsed three times for 15 min in 2.5% Triton-X 100 to remove SDS and renature the proteins, then incubated in MMP activation buffer (0.05 M Tris-HCl, pH 7.5 with 5 mM CaCl2) for 24 hours at 37° C. with constant shaking. Gels were stained overnight in 0.5% Coomassie blue R-250, and destained for 1 hour in 40% methanol: 10% acetic acid. Proteinase activity was quantified by densitometric scanning of bands using a Bio-Rad Gel Doc 1000 video camera imaging system (Bio Rad, Hercules, Calif.). […]
In assay [5] the test system is MMP-9. Briefly: Gelatin zymography of human myoblasts, MMP-9. Type of assay: cell-based.
Protocol: Briefly, myoblasts were grown in 6 cm tissue culture plates to approximately 70% confluence, then rinsed three times with serumfree DMEM and incubated for 3 hours in DMEM containing 0.2% BSA to eliminate the effects of serum. Growth factors were added and cells were incubated for 24 hours. Culture medium was then collected, centrifuged to pellet detached cells, and concentrated ten-to twenty-fold using the Centricon-10 (Amicon, Beverly, Mass.) system. The protein concentration of the supernatants was determined using the Bio-Rad protein microassay system with BSA used as the standard. Samples were stored at −70° C. until use. For gelatin zymography, aliquots (10 μg as the total protein per sample) were electrophoresed at constant voltage on a 10% polyacrylamide gel containing 2 mg/ml gelatin. The gel was rinsed three times for 15 min in 2.5% Triton-X 100 to remove SDS and renature the proteins, then incubated in MMP activation buffer (0.05 M Tris-HCl, pH 7.5 with 5 mM CaCl2) for 24 hours at 37° C. with constant shaking. Gels were stained overnight in 0.5% Coomassie blue R-250, and destained for 1 hour in 40% methanol: 10% acetic acid. Proteinase activity was quantified by densitometric scanning of bands using a Bio-Rad Gel Doc 1000 video camera imaging system (Bio Rad, Hercules, Calif.).
[6] abbreviates: mouse myoblasts treated 24 hours.

As for human serum fibronectin, the “increase in the number of β-GAL-positive myofibers over control” value in assay [1] is 2 fold. Moreover, the “MMP-2 proteolytic activation (64 and 62 kDa forms)” value in assay [2] (setting [6]) is “substantial proteolytic conversion to the activated and intermediate forms”. Moreover, in assay [2] (mouse myoblasts, soluble fibronectin 24 hours), the “increased MMP-2 expression” value is on record as “approximately 2 fold”. The “increase of mouse myoblast invasion across Matrigel barrier over the control” value in assay [3] was 4 fold. Further, the “effect on MMP-9 expression” value in assay [4] (mouse myoblasts) is reported as “does not significantly affect”.

With “bovine basic fibroblast growth factor [bFGF]”, the “increase in the number of β-GAL-positive myofibers over control” value in assay [1] came out at 2.3 fold. Besides, the “increase of total MMP-2 expression” value in assay [2] (mouse myoblasts treated 24 hours, densitometry normalized to DMEM control) came out at 49%. In addition, in assay [5], the “effect on MMP-9 expression (92 kDa band)” value is on record as “only marginal increases in MMP-9 expression”. Further, in assay [3], the “increase of mouse myoblast invasion across Matrigel barrier over the control” value is on record as “approximately 7 fold”. Further, the “MMP-9 expression (110 kDa band) over the DMEM control level” value in assay [4] (setting [6]) is around 10 fold.

On to `CC(=O)N[C@@H](CS)C(=O)O` [NAC, N-acetyl cysteine, reference compound], for which the “effect on bFGF-stimulated mouse myoblast invasion” value in assay [3] is on record as “drastically reduced such stimulatory effects to the control levels”.

B1: purified human plasmin (protein, UniProt P00747 20-580; P00747 581-810, looked up)
Plasmin heavy chain A: EPLDDYVNTQGASLFSVTKKQLGAGSIEECAAKCEEDEEFTCRAFQYHSKEQQCVIMAENRKSSIIIRMRDVVLFEKKVYLSECKTGNGKNYRGTMSKTKNGITCQKWSSTSPHRPRFSPATHPSEGLEENYCRNPDNDPQGPWCYTTDPEKRYDYCDILECEEECMHCSGENYDGKISKTMSGLECQAWDSQSPHAHGYIPSKFPNKNLKKNYCRNPDRELRPWCFTTDPNKRWELCDIPRCTTPPPSSGPTYQCLKGTGENYRGNVAVTVSGHTCQHWSAQTPHTHNRTPENFPCKNLDENYCRNPDGKRAPWCHTTNSQVRWEYCKIPSCDSSPVSTEQLAPTAPPELTPVVQDCYHGDGQSYRGTSSTTTTGKKCQSWSSMTPHRHQKTPENYPNAGLTMNYCRNPDADKGPWCFTTDPSVRWEYCNLKKCSGTEASVVAPPPVVLLPDVETPSEEDCMFGNGKGYRGKRATTVTGTPCQDWAAQEPHRHSIFTPETNPRAGLEKNYCRNPDGDVGGPWCYTTNPRKLYDYCDVPQCAAPSFDCGKPQVEPKKCPGR
Plasmin light chain B: VVGGCVAHPHSWPWQVSLRTRFGMHFCGGTLISPEWVLTAAHCLEKSPRPSSYKVILGAHQEVNLEPHVQEIEVSRLFLEPTRKDIALLKLSSPAVITDKVIPACLPSPNYVVADRTECFITGWGETQGTFGAGLLKEAQLPVIENKVCNRYEFLNGRVQSTELCAGHLAGGTDSCQGDSGGPLVCFEKDKYILQGVTSWGLGCARPNKPGVYVRVSRFVTWIEGVMRNN
modifications: Plasmin
As to B1, in assay [3], the “effect on bFGF-stimulated mouse myoblast invasion” value was “further increased the effects of bFGF”. Moreover, the “effect on invasion stimulated by combination of bFGF and fibronectin” value in assay [3] (plasmin) is recorded as “lowered the greatly enhanced effects”.

Values taken from patent US20010055590A1, “Method for enhancing myoblast migration and invasion in the context of gene therapy” (priority 1999, published 2001).
